Results on 37 compounds are retold here after patent publication US9701711B2, “Modulators of protease activated receptors” (THE UNIVERSITY OF QUEENSLAND, priority 2010, dated 2017).

For assay [1], the target named is T1, PAR2 (Homo sapiens, UniProt P55085).
T1 sequence (P55085 26-397): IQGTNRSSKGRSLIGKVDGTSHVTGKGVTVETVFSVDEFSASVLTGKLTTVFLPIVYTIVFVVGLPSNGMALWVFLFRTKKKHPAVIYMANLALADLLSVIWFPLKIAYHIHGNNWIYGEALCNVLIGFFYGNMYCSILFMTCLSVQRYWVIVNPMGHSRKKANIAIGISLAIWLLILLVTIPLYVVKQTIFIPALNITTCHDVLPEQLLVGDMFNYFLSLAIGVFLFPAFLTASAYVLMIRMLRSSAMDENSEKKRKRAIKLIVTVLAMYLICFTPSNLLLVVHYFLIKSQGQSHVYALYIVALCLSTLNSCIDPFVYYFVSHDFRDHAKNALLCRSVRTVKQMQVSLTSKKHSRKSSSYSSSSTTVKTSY
Briefly: PAR2 activation (agonist) by intracellular calcium mobilisation in HT29 cells. In kind it is cell-based. Details: Agonists of Ca^2+ release in HT29 cells; endogenous in cells; host or cells: HT29 (human cell line, cultured per ATCC information). As to conditions: for EC50: Fluo-3 fluorescence. An excerpt: (§1) The ability of the compounds of the present invention to activate PAR2 may be assessed via calcium mobilisation assays. It is appreciated that compounds that activate the release of intracellular calcium from one type of cell are agonists or partial agonists, while those that inhibit such release may be antagonists. […] The general assay protocols may vary slightly depending on the chosen cell line. In general, during cell culture passage, cell dissociation solution (CDS, Sigma Aldrich) is used to replace trypsin to dissociate cells from surface. Lipopolysaccharide (LPS) and trypsin are purchased from Sigma Aldrich. […] ELISA sets are purchased from BD Pharmingen (San Jose, Calif.) and cytokine array kits are purchased from RayBiotecho (Norcross, Ga.).
(§2) Cells are seeded overnight in 96-well black walled, clear bottomed, plate at approximately 2×10^4 to 4×10^5 cells per well. […] The cells are then washed twice with HBSS and transferred to a Polarstar spectrotluorimeter (BMG, Durham N.C.).
HBSS is prepared in-house and all other reagents are purchased from Invitrogen, Carlsbad. Plates are supplied by DKSH, Zurich. Calcimycin (A23187, Invitrogen) is used to measure maximum fluorescence, with individual results normalized accordingly.
Three different concentrations of 6 added to HT29 cells at room temperature. Duplicate measurements were made for each data point, accordingly, each data point represents mean±SEM. Net changes in fluorescence were calculated as a percentage relative to the maximum response given by 100 μM of the PAR2 agonist 2f-LIGRLO-NH2.

For assay [2], the target named is T1, PAR2. Put plainly: PAR2 agonist inhibition (antagonism) by intracellular Ca2+ release in HT29 cells. In kind it is cell-based. Details: Agonists of Ca^2+ release in HT29 cells; endogenous in cells; host or cells: HT29 (human cell line, cultured per ATCC information).
Description: as §1, §2
The cells are prepared as outlined above then treated with the “putative” antagonist 30 min prior to the addition of either trypsin or a synthetic agonist at a concentration equal to the agonists ED80.
The cells were then treated with 1 μM of the PAR2 agonist 2f-LIGRLO-NH2 (FIG. 2A. n=5) or 100 nM Trypsin (FIG. 2B, n=1). Each data point represents mean±SEM. Net changes in fluorescence were calculated as a percentage relative to the maximum response given 1 μM 2f-LIGRLO-NH2 or 100 nM Trypsin. Changes in fluorescence (% response) were plotted against logarithmic compound concentrations. The half maximal inhibitory concentration (IC50) values were derived from the dose response curve using a nonlinear regression curve in Graphpad Prism v5.

[3] abbreviates: read-out: EC50, agonist or partial agonist of Ca2+ release in HT29 cells.
Setting [4] is: HT29 cells, 30 min pre-incubation, then PAR2 agonist (1 μM 2f-LIGRLO-NH2), read-out: IC50, inhibition of Ca2+ release in HT29 cells.
Setting [5] is: EC50, agonist or partial agonist of Ca2+ release in HT29 cells.

“And” between values parts separate entries of the source, which are not always exact repeats. Identical values can stand only once. Like-named read-outs stand apart in the source and are kept apart here. Bounds are passed on as bounds.

In general, EC50 refers to the concentration that produces a half-maximal response. With `CC[C@H](C)[C@H](NC(=O)[C@H](CC1CCCCC1)NC(=O)c1ccno1)C(=O)NCc1ccccc1` [Compound 3], the 50% effective concentration (EC50) in assay [1] (setting [3]) is 30 µM.

A word on the IC50: it is the concentration needed to halve the response being measured. In the case of `CC[C@H](C)[C@H](NC(=O)[C@H](CC1CCOCC1)NC(=O)c1ccno1)C(=O)N1CCC2(C=Cc3ccccc32)CC1` [Compound 43], the half-inhibitory concentration (IC50) in assay [2] (setting [4]) is 60 µM.

As to `CC[C@H](C)[C@H](NC(=O)[C@H](CC1CCCCC1)NC(=O)c1ccno1)C(=O)N1CCC2(CC1)c1ccccc1C(O)C2O` (some centres unmarked) [Compound 16], the concentration for a half-maximal effect (EC50) in assay [1] (setting [3]) lay within 5 to 7 µM.

As for `CC[C@H](C)[C@H](NC(=O)[C@H](CC1CCCCC1)NC(=O)c1ccno1)C(=O)NCc1cccc(C(=O)N2CCC(NCCN)(C(=O)NCc3ccccc3)CC2)c1` [Compound 29], the half-inhibitory concentration (IC50) in assay [2] (setting [4]) was 0.7 µM.

On to `CC[C@H](C)[C@H](NC(=O)[C@H](CC1CCCCC1)NC(=O)c1ccno1)C(=O)N1CCC(c2cc(OC)ccc2OC)CC1` [Compound 32], for which the IC50 in assay [2] (setting [4]) lay within 5 to 10 µM.

Consider `CC[C@H](C)[C@H](NC(=O)[C@H](CC1CCCCC1)NC(=O)c1ccno1)C(=O)NCc1cccc(OC)c1` [Compound 19], for which, in assay [2] (setting [4]), the concentration for half-maximal inhibition (IC50) amounted to 0.5 ± 0.1 µM.

In the case of `CCCOc1ccccc1CNC(=O)[C@@H](NC(=O)[C@H](CC1CCCCC1)NC(=O)c1ccno1)[C@@H](C)CC` [Compound 22], in assay [2] (setting [4]), the IC50 amounted to 2 µM.

`CCCCOc1ccccc1CNC(=O)[C@@H](NC(=O)[C@H](CC1CCCCC1)NC(=O)c1ccno1)[C@@H](C)CC` [Compound 23]: the IC50 in assay [2] (setting [4]) was 40 µM.

In the case of `CC[C@H](C)[C@H](NC(=O)[C@H](CC1CCCCC1)NC(=O)c1ccno1)C(=O)NCc1ccccc1OC(C)C` [Compound 24, 5-isoxazoyl-Cha-Ile-aminomethyl-(2-isopropoxy)phenyl], the IC50 in assay [2] (setting [4]) was 1.3 ± 0.1 µM.

`CC[C@H](C)[C@H](NC(=O)[C@H](CC1CCCCC1)NC(=O)c1ccno1)C(=O)N1CCC(NC(C)=O)(c2ccccc2)CC1` [Compound 12]: the EC50 in assay [1] (setting [3]) is 1 to 6 µM.

Turning to `CC[C@H](C)[C@H](NC(=O)[C@H](CC1CCCCC1)NC(=O)c1ccno1)C(=O)NCc1ccccc1C(F)(F)F` [Compound 28], in assay [2] (setting [4]), the half-maximal inhibitory concentration (IC50) lay in the range of 1 to 2 µM.

On to `CC[C@H](C)[C@H](NC(=O)[C@H](CC1CCCCC1)NC(=O)c1ccno1)C(=O)N1CCC(c2ccccc2C(F)(F)F)CC1` [Compound 33], for which, in assay [2] (setting [4]), the IC50 was 10 µM.

Take `CC[C@H](C)[C@H](NC(=O)[C@H](CC1CCCCC1)NC(=O)c1ccno1)C(=O)NCc1ccc(F)cc1` [Compound 8]: the EC50 in assay [1] (setting [3]) was 40 µM.

Turning to `CC[C@H](C)[C@H](NC(=O)[C@H](CC1CCCCC1)NC(=O)c1ccno1)C(=O)N1CCC2(CC1)CC(=O)c1ccccc1O2` [Compound 15], the EC50 in assay [1] (setting [5]) worked out at 0.76 µM.

With `CC[C@H](C)[C@H](NC(=O)[C@H](CC1CCCCC1)NC(=O)c1ccno1)C(=O)NCc1ccccc1[N+](=O)[O-]` [Compound 9], in assay [1] (setting [3]), the EC50 amounted to 10 µM.

For `CC[C@H](C)[C@H](NC(=O)[C@H](CC1CCCCC1)NC(=O)c1ccno1)C(=O)N1CCC(c2ccc(OC)cc2)CC1` [Compound 31], the IC50 in assay [2] (setting [4]) was 10 µM.

Consider `CC[C@H](C)[C@H](NC(=O)[C@H](CC1CCCCC1)NC(=O)c1ccno1)C(=O)N(C)Cc1ccccc1OC` [Compound 39, 5-isoxazoyl-Cha-Ile-aminodimethyl-(2-methoxy)phenyl], for which the IC50 in assay [2] (setting [4]) amounted to 6.4 µM.

`CC[C@H](C)[C@H](NC(=O)[C@H](CC1CCCCC1)NC(=O)c1ccno1)C(=O)N1CCC2(CCc3ccccc3O2)CC1` [Compound 37, 5-isoxazoyl-Cha-Ile-spiro[chroman-2,4′-piperidine]]: the half-maximal inhibitory concentration (IC50) in assay [2] (setting [4]) fell in the range of 5 to 10 µM.

As for `CC[C@H](C)[C@H](NC(=O)[C@H](CC1CCCCC1)NC(=O)c1ccno1)C(=O)NCc1ccc(OC)cc1` [Compound 4], the EC50 in assay [1] (setting [3]) worked out at 10 µM.

With `CCC(C)Oc1ccccc1CNC(=O)[C@@H](NC(=O)[C@H](CC1CCCCC1)NC(=O)c1ccno1)[C@@H](C)CC` (some centres unmarked) [Compound 25], the half-inhibitory concentration (IC50) in assay [2] was 1.6 ± 0.4 µM.

As for `CC[C@H](C)[C@H](NC(=O)[C@H](CC1CCCCC1)NC(=O)c1ccno1)C(=O)N1CCC(Cc2ccccc2)CC1` [Compound 35], in assay [2] (setting [4]), the half-inhibitory concentration (IC50) was 8 µM.

As for `CC[C@H](C)[C@H](NC(=O)[C@H](CC1CCCCC1)NC(=O)c1ccno1)C(=O)NCc1ccccc1Cl` [Compound 5], the EC50 in assay [1] (setting [3]) worked out at 10 µM.

Turning to `CC[C@H](C)[C@H](NC(=O)[C@H](CC1CCCCC1)NC(=O)c1ccno1)C(=O)N1CCC2(CC1)OC(=O)c1ccccc12` [Compound 14], the EC50 in assay [1] (setting [5]) was 1.3 µM.

On to `CC[C@H](C)[C@H](NC(=O)[C@H](CC1CCCCC1)NC(=O)c1ccno1)C(=O)N1CCN(c2ccc(F)cc2)CC1` [Compound 10], for which the EC50 in assay [1] (setting [3]) stood at 10 µM.

For `CCOc1ccccc1CNC(=O)[C@@H](NC(=O)[C@H](CC1CCCCC1)NC(=O)c1ccno1)[C@@H](C)CC` [Compound 21], the IC50 in assay [2] (setting [4]) is 0.7 ± 0.1 µM.

As to `CC[C@H](C)[C@H](NC(=O)[C@H](CC1CCCCC1)NC(=O)c1ccno1)C(=O)NCc1cccc(F)c1` [Compound 7], the EC50 in assay [1] (setting [3]) is 40 µM.

For `CC[C@H](C)[C@H](NC(=O)[C@H](CC1CCCCC1)NC(=O)c1ccno1)C(=O)N1CCC2(CC1)CN(S(C)(=O)=O)c1ccccc12` [Compound 13], in assay [1] (setting [3]), the concentration for a half-maximal effect (EC50) came out at 1.8 µM.

On to `CC[C@H](C)[C@H](NC(=O)[C@H](CC1CCCCC1)NC(=O)c1ccno1)C(=O)NCc1ccccc1C` [Compound 20], for which the half-inhibitory concentration (IC50) in assay [2] (setting [4]) worked out at 0.5 ± 0.1 µM.

Regarding `CC[C@H](C)[C@H](NC(=O)[C@H](CC1CCCCC1)NC(=O)c1ccno1)C(=O)NCc1cccc2c1OCO2` [Compound 26, 5-isoxazoyl-Cha-Ile-aminomethyl-(1,3-dioxalane)phenyl], the IC50 in assay [2] (setting [4]) came out at 0.4 ± 0.1 µM.

Take `CC[C@H](C)[C@H](NC(=O)[C@H](CC1CCCCC1)NC(=O)c1ccno1)C(=O)N1CCC(c2ccccc2-c2ccccc2)CC1` [Compound 34]: the IC50 in assay [2] (setting [4]) came to 25 µM.

Take `CC[C@H](C)[C@H](NC(=O)[C@H](CC1CCCCC1)NC(=O)c1ccno1)C(=O)N1CCc2cc(OC)c(OC)cc2C1` [Compound 11]: the EC50 in assay [1] (setting [3]) is 5 to 10 µM.

Regarding `CC[C@H](C)[C@H](NC(=O)[C@H](CC1CCCCC1)NC(=O)c1ccno1)C(=O)NCc1ccc(Cl)c(Cl)c1` [Compound 27, 5-isoxazoyl-Cha-Ile-aminomethyl-(3,4-dichloro)phenyl], the concentration for half-maximal inhibition (IC50) in assay [2] (setting [4]) turned out to be 1.4 ± 0.8 µM.

Turning to `COc1ccccc1CNC(=O)[C@@H](NC(=O)[C@H](CC1CCCCC1)NC(=O)c1ccno1)[C@@H](C)OC` [Compound 40, 5-isoxazoyl-Cha-Thr(Me)-aminomethyl-(2-methoxy)phenyl], in assay [2] (setting [4]), the IC50 was determined as 1.3 µM.

For `CC[C@H](C)[C@H](NC(=O)[C@H](CC1CCCCC1)NC(=O)c1ccno1)C(=O)NCc1ccccc1F` [Compound 6, 5-isoxazoyl-Cha-Ile-aminomethyl-(2-fluoro)phenyl], the EC50 in assay [1] (setting [3]) is ~30 µM and 30 µM. The Emax at 30 µM in assay [1] (HT-29, compound at 30 μM, room temperature, read-out: Response relative to the maximum response given by 100 μM 2f-LIGRLO-NH2) is not above 50%.

Consider `CC[C@H](C)[C@H](NC(=O)[C@H](CC1CCCCC1)NC(=O)c1ccno1)C(=O)N1CCCC(Nc2cccc(C(F)(F)F)c2)C1` (some centres unmarked) [Compound 38], for which, in assay [2] (setting [4]), the IC50 was found to be 6 µM.

For `CC[C@H](C)[C@H](NC(=O)[C@H](CC1CCCCC1)NC(=O)c1ccno1)C(=O)N1CCCC[C@H]1C(=O)NC(C)(C)C` [Compound 36], the IC50 in assay [2] (setting [4]) stood at 8.6 ± 2.6 µM.

Regarding `CC[C@H](C)[C@H](NC(=O)[C@H](CC1CCCCC1)NC(=O)c1ccno1)C(=O)N1CCC2(CC1)c1ccccc1C(NCc1ccc(F)cc1)C2O` (some centres unmarked) [Compound 17], the 50% effective concentration (EC50) in assay [1] (setting [3]) was 20 µM.
